The term half-life denotes the time needed for the level to fall by half in the phase considered. High values mean slow decline, low ones rapid decline. As a reminder, the Cmax is the highest concentration seen after dosing.

The test system of data set [1] is Haemophilus influenzae. Briefly: Minimum inhibition concentration against Haemophilus influenzae strains. The class given is functional.
Data set [2] deals with Staphylococcus aureus. Briefly: Minimum inhibition concentration against Staphylococcus aureus strains in presence of >64% calf serum. The class given is functional.
Data set [3] concerns Staphylococcus aureus. Briefly: Minimum inhibition concentration against Staphylococcus aureus strains in presence of 8% calf serum. It counts as functional.
Data set [4] has as its system Staphylococcus aureus. Briefly: Minimum inhibition concentration against Staphylococcus aureus strains in presence of 2% calf serum. It counts as functional.
For data set [5], the system named is Staphylococcus aureus. Briefly: Minimum inhibition concentration against Staphylococcus aureus strains in presence of >32% calf serum. It counts as functional.
Data set [6] relates to Staphylococcus aureus. Briefly: Minimum inhibition concentration against Staphylococcus aureus strains in presence of 1% calf serum. It counts as functional.
Data set [7] relates to Staphylococcus aureus. Briefly: Minimum inhibition concentration against Staphylococcus aureus strains in presence of 16% calf serum. It counts as functional.
For data set [8], the system named is Staphylococcus aureus. Briefly: Minimum inhibition concentration against Staphylococcus aureus strains in presence of 0.5% calf serum. The class given is functional.
In data set [9] the test system is Staphylococcus aureus. Briefly: Minimum inhibition concentration against Staphylococcus aureus strains in presence of 32% calf serum. The class given is functional. The conditions noted are these: Staphylococcus aureus.
A short description of data set [10]: Half life for compound in mouse was determined. The class given is ADME. The conditions noted are these: in vivo.
The nature of data set [11]: Area under curve concentration in mouse was determined. It counts as ADME. The conditions noted are these: in vivo.
Data set [12] can be described thus: Protective dose against Staphylococcus aureus in mice after 8 days of oral b.i.d. administration at 1 and 5 hr per interval (n=10). It counts as functional. The conditions noted are these: read-out: PD50.
Data set [13] is described as follows: Maximum serum concentration in mouse was determined. The class given is ADME, organism-based.
Data set [14] deals with Staphylococcus aureus. Briefly: Minimum inhibition concentration against Staphylococcus aureus strains in presence of 4% calf serum. It counts as functional.
Data set [15] has as its system Mus musculus. Briefly: Protective dose against Staphylococcus aureus in mice after 8 days of oral b.i.d. administration at 1 and 5 h per interval with water as vehicle (n=10); range is 5-6 mg/kg/day. It counts as functional. The conditions noted are these: read-out: PD50.

≈ marks a conversion by molar mass, not a printed value. Some results are limits rather than exact numbers.

As for `CC(=O)NCn1cc(-c2ccc(-c3cncc(C(=O)O)c3)cc2)c(=O)o1`, the MIC was found to be 64 µg/mL (≈ 181 µM) in [1] and 32 µg/mL in [2].
On to `COc1ccccc1-c1ccc(-c2cn(CNC(C)=O)oc2=O)cc1`, for which the MIC turned out to be 32 µg/mL (≈ 94.6 µM) in data set [1] and 0.5 µg/mL in [3].
For the compound `CC(=O)NCn1cc(-c2ccc(-c3ccc(C(C)=O)cc3)cc2)c(=O)o1`, the results for the MIC in data set [1] and in [4] were 4 µg/mL (≈ 11.4 µM) and 0.06 µg/mL, respectively.
As to `CC(=O)NCn1cc(-c2ccc(-c3ccc(Oc4ccccc4)cc3)cc2)c(=O)o1`, the MIC in data set [1] is over 32 µg/mL; in data set [5] it was 64 µg/mL.
On to `CC(=O)NCn1cc(-c2ccc(-c3ccc([N+](=O)[O-])cc3)cc2)c(=O)o1`, for which the MIC in [1] is over 32 µg/mL; in [6] it was 0.03 µg/mL.
As for `CC(=O)NCn1cc(-c2ccc(-c3cccc(C(=O)O)c3)cc2)c(=O)o1`, the results for the MIC in data set [1] and in [7] were 8 µg/mL (≈ 22.7 µM) and 16 µg/mL, respectively.
On to `COC(=O)c1ccc(-c2ccc(-c3cn(CNC(C)=O)oc3=O)cc2)cc1`, for which the values for the MIC in [1] and in data set [8] were over 32 µg/mL and 0.06 µg/mL, respectively.
Consider `CC(=O)NCn1cc(-c2ccc(-c3ccc(C(=O)O)c(F)c3)cc2)c(=O)o1`, for which the MIC in data set [1] was 32 µg/mL (≈ 86.4 µM); in data set [9] it was 4 µg/mL.
`COc1cc(-c2ccc(-c3cn(CNC(C)=O)oc3=O)cc2)cc(OC)c1OC`: the MIC is over 32 µg/mL in data set [1] and 4 µg/mL in data set [7].
Turning to `CC(=O)NCn1cc(-c2ccc(-c3ncn(C)n3)cc2)c(=O)o1`, the MIC in data set [1] is over 64 µg/mL; in data set [3] it was 4 µg/mL.
For `CC(=O)NCn1cc(-c2ccc(-c3ccc[nH]3)cc2)c(=O)o1`, the MIC in data set [1] was over 64 µg/mL; in data set [7] it was 8 µg/mL.
Consider `CSc1ccc(-c2ccc(-c3cn(CNC(C)=O)oc3=O)cc2)cc1`, for which the MIC in [1] was over 32 µg/mL; in [7], 0.5 µg/mL.
For the compound `CC(=O)NCn1cc(-c2ccc(-c3ccc(Cl)cc3)cc2)c(=O)o1`, the MIC was over 32 µg/mL in [1] and 0.06 µg/mL in data set [3].
On to `CC(=O)NCn1cc(-c2ccc(-c3ccc(C)nc3)cc2)c(=O)o1`, for which the MIC was found to be 8 µg/mL (≈ 24.7 µM) in [1] and 0.25 µg/mL in [4].
With `CC(=O)NCn1cc(-c2ccc(-c3sccc3CN3CCOCC3)cc2)c(=O)o1`, the MIC in data set [1] is over 64 µg/mL; in [2], 8 µg/mL.
With `CC(=O)NCn1cc(-c2ccc(C3CCN(C(C)=O)CC3)cc2)c(=O)o1`, the MIC in data set [1] amounted to 8 µg/mL (≈ 22.4 µM); in data set [6] it was 1 µg/mL.
For `CC(=O)NCn1cc(-c2ccc(-c3ccc(C#N)cc3)cc2)c(=O)o1`, the MIC in [1] is 4 µg/mL (≈ 12 µM); in data set [4], 0.06 µg/mL.
As for `CC(=O)NCn1cc(-c2ccc(-c3ccc(C(F)(F)F)cc3)cc2)c(=O)o1`, the figures for the MIC in data set [1] and in data set [3] were over 32 µg/mL and 0.25 µg/mL, respectively.
For the compound `CC(=O)NCn1cc(-c2ccc(-c3cccc(N)c3)cc2)c(=O)o1`, the values for the MIC in [1] and in data set [4] were 2 µg/mL (≈ 6.19 µM) and 0.125 µg/mL, respectively.
For the compound `CC(=O)NCn1cc(-c2ccc(C3CCOCC3)cc2)c(=O)o1`, the results for the MIC in data set [1] and in data set [4] were 32 µg/mL (≈ 101 µM) and 1 µg/mL, respectively.
`CC(=O)NCn1cc(-c2ccc(-c3ccc(C(=O)O)cc3)cc2)c(=O)o1`: the half-life in [10] was found to be 8.5 min. Further, the MIC in data set [1] turned out to be 2 µg/mL (≈ 5.68 µM); in [3] it was 1 µg/mL. In data set [11], this compound came in with an AUC of 0.56 µg/h/mL. Further, the ED50 in data set [12] was over 50 mg/kg/day. The compound further displayed a Cmax in data set [13] of 1700 ng/mL.
Take `CC(=O)NCn1cc(-c2ccc(-c3ccc(F)cc3)cc2)c(=O)o1`: the MIC in data set [1] amounted to 2 µg/mL (≈ 6.13 µM); in data set [14] it was 0.03 µg/mL. The ED50 in [12] was under 5 mg/kg/day.
With `CC(=O)NCn1cc(-c2ccc(-c3ccoc3)cc2)c(=O)o1`, the values for the MIC in [1] and in data set [14] were 4 µg/mL (≈ 13.4 µM) and 0.125 µg/mL, respectively. In addition, the ED50 in data set [12] is over 50 mg/kg/day.
In the case of `COc1ccc(-c2ccc(-c3cn(CNC(C)=O)oc3=O)cc2)cc1OC`, the MIC was found to be 32 µg/mL (≈ 86.9 µM) in data set [1] and 0.25 µg/mL in data set [6].
Regarding `CC(=O)NCn1cc(-c2ccc(-c3sccc3CO)cc2)c(=O)o1`, the MIC in data set [1] came to 32 µg/mL (≈ 92.9 µM); in data set [14] it was 0.25 µg/mL.
On to `CC(=O)NCn1cc(-c2ccc(-c3ccc(/C=C/[N+](=O)[O-])cc3)cc2)c(=O)o1`, for which the figures for the MIC in [1] and in [14] were 4 µg/mL (≈ 10.5 µM) and 0.125 µg/mL, respectively.
As for `CC(=O)NCn1cc(-c2ccc(C3=CCN(C(C)=O)CC3)cc2)c(=O)o1`, the half-life in [10] was found to be 6.4 min. Also, the results for the MIC in data set [1] and in data set [8] were 2 µg/mL (≈ 5.63 µM) and 0.25 µg/mL, respectively. In [11], this compound yielded an AUC of 1.5 µg/h/mL. Moreover, the ED50 in [12] came out at 9 mg/kg/day. This compound also came in with a Cmax in data set [13] of 2600 ng/mL.
As for `CC(=O)NC[C@H]1CN(c2ccc(N3CCOCC3)c(F)c2)C(=O)O1` [LINEZOLID], the MIC in [1] was 32 µg/mL (≈ 94.9 µM); in [4], 1 µg/mL. For the same compound, the ED50 in data set [15] amounted to 6 mg/kg/day.

The values above are taken from ChEMBL document CHEMBL1139561, “Biaryl isoxazolinone antibacterial agents” (Bioorg Med Chem Lett, 2005).
